≈ marks a conversion by molar mass, not a printed value.
How the values were obtained:
Vaccinia virus = assay: microbe, parasite or virus in culture; type: cell-based
[1] = tested on: Flu A (H5N1) Vietnam/1203/2004H; assay: microbe, parasite or virus in culture; type: cell-based
Flu B Malaysia/2506/2004 [2] = assay: Flu B Malaysia/2506/2004, Neutral Red assay, MDCK; type: cell-based; settings: control compound
Flu B Malaysia/2506/2004 [3] = assay: Flu B Malaysia/2506/2004, Visual assay, MDCK; type: cell-based
Flu B Shanghai/361/02 [4] = assay: Flu B Shanghai/361/02, Neutral Red assay, MDCK; type: cell-based; settings: control compound, read-out: CTRL IC50
Flu B Shanghai/361/02 [5] = assay: Flu B Shanghai/361/02, Visual assay, MDCK; type: cell-based
HFF cells = settings: human

SMILES: Nc1ccn(C[C@@H](CO)OCP(=O)(O)O)c(=O)n1 [Cidofovir]
- inhibition at 0.56 µg/mL (Vaccinia virus; Orthopoxvirus vaccinia, HFF, 0.56 μg/mL, read-out: Viral Inhibition Rate): 11%
- inhibition at 1.67 µg/mL (Vaccinia virus; Orthopoxvirus vaccinia, HFF, 1.67 μg/mL, read-out: Viral Inhibition Rate): 53%

SMILES: C=C(CC[C@@H](C(=O)O)[C@H]1C[C@H](O)[C@@]2(C)C3=CC[C@H]4C(C)(C)[C@@H](O)CC[C@]4(C)C3=CC[C@]12C)C(C)C [Dehydrosulphurenic Acid]
- Viral Inhibition Rate (Vaccinia virus; 11 μg/mL): 16%
- Viral Inhibition Rate (Vaccinia virus; 33 μg/mL): 58%

SMILES: C=C(CC[C@@H](C(=O)O)[C@H]1CC[C@@]2(C)C3=C(CC[C@]12C)[C@@]1(C)CC[C@H](O)C(C)(C)[C@@H]1CC3)C(C)C [Eburicoic Acid]
- inhibition at 11 µg/mL (Vaccinia virus; Orthopoxvirus vaccinia, HFF, 11 μg/mL, read-out: Viral Inhibition Rate): 27%
- inhibition at 33 µg/mL (Vaccinia virus; Orthopoxvirus vaccinia, HFF, 33 μg/mL, read-out: Viral Inhibition Rate): 29%
- inhibition at 100 µg/mL (Vaccinia virus; Orthopoxvirus vaccinia, HFF, 100 μg/mL, read-out: Viral Inhibition Rate): 55%

SMILES: NC(=O)c1ncn([C@@H]2O[C@H](CO)[C@@H](O)[C@H]2O)n1 [Ribavirin]
- CTRL SI [1]: >46
- IC50 ([1]; Influenza A virus, H5N1, MDCK, read-out: CTRL IC50): > 320 µg/mL
- CTRL EC50 (Flu B Malaysia/2506/2004 [2]): 10 µg/mL
- IC50 (Flu B Malaysia/2506/2004 [2]; read-out: CTRL IC50): > 320 µg/mL
- CTRL EC50 (Flu B Malaysia/2506/2004 [3]; control compound, Flu B Malaysia/2506/2004, Visual): 3 µg/mL
- IC50 (Flu B Malaysia/2506/2004 [3]; read-out: CTRL IC50): > 320 µg/mL
- IC50 (Flu B Shanghai/361/02 [4]): > 320 µg/mL
- CTRL SI (Flu B Shanghai/361/02 [5]; control compound, Flu B Shanghai/361/02, Visual): >160
- EC50 (Flu B Shanghai/361/02 [5]; read-out: CTRL EC50): 2 µg/mL (≈ 8.19 µM)
- IC50 (Flu B Shanghai/361/02 [5]; read-out: CTRL IC50): > 320 µg/mL

SMILES: C=C(CC[C@@H](C(=O)O)[C@H]1C[C@H](O)[C@@]2(C)C3=C(CC[C@]12C)[C@@]1(C)CC[C@H](O)C(C)(C)[C@@H]1CC3)C(C)C [Sulphurenic acid]
- Viral Inhibition Rate (Vaccinia virus; 3.7 μg/mL): 36%
- Viral Inhibition Rate (Vaccinia virus; 11 μg/mL): 51%
- Viral Inhibition Rate (Vaccinia virus; 33 μg/mL): 58%

SMILES: CCO [ethanol]
- CC50 (HFF cells): 7%
